Source: the supplement of paper PMC10307832

Tests used:
Assay in all cases: relative viability (nuclei count vs DMSO), 5 days (fraction); higher = more cells survive
Dasatinib + Decitabine = compound: Cc1nc(Nc2ncc(C(=O)Nc3c(C)cccc3Cl)s2)cc(N2CCN(CCO)CC2)n1 [Dasatinib] + Nc1ncn([C@H]2C[C@H](O)[C@@H](CO)O2)c(=O)n1 [Decitabine] (partner 2 µM)
How it was run: (§1)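 For relative viability, nuclei counts in treated wells were divided by those in vehicle wells. Lung cancer cell lines had been pin-tool dosed in 1536-well plates the day after seeding and cultured for 5 days, then fixed and stained in one step (final 0.05% Triton X-100, 1% formaldehyde, 1 ug/ml Hoechst) and imaged at 4×. Doses were one drug alone or a fixed anchor-drug dose plus five library-drug doses (not always all listed) in √10 steps, and values are duplicate-plate medians.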

XMD13-2 + Alpelisib = compound: C1CC1C(=O)NC2=NNC3=C2C=CC(=C3)C4=CC(=CC=C4)C(=O)NC5CC5 [XMD13-2] + Cc1nc(NC(=O)N2CCC[C@H]2C(N)=O)sc1-c1ccnc(C(C)(C)C(F)(F)F)c1 [Alpelisib] (partner 2 µM)
How it was run: as §1

ALW-II-49-7 + Foretinib = compound: Cc1ccc(C(=O)Nc2cccc(C(F)(F)F)c2)cc1Nc1cncc(C(N)=O)c1 [ALW-II-49-7] + COc1cc2c(Oc3ccc(NC(=O)C4(C(=O)Nc5ccc(F)cc5)CC4)cc3F)ccnc2cc1OCCCN1CCOCC1 [Foretinib] (partner 0.25 µM)
How it was run: as §1

ALW-II-49-7 + Alpelisib = compound: Cc1ccc(C(=O)Nc2cccc(C(F)(F)F)c2)cc1Nc1cncc(C(N)=O)c1 [ALW-II-49-7] + Cc1nc(NC(=O)N2CCC[C@H]2C(N)=O)sc1-c1ccnc(C(C)(C)C(F)(F)F)c1 [Alpelisib] (partner 2 µM)
How it was run: as §1

Row | Cell Line | relative viability (Dasatinib + Decitabine; first compound 0.005 µM) | relative viability (Dasatinib + Decitabine; first compound 0.01581 µM) | relative viability (Dasatinib + Decitabine; first compound 0.05 µM) | relative viability (Dasatinib + Decitabine; first compound 0.1581 µM) | relative viability (Dasatinib + Decitabine; first compound 0.5 µM) | relative viability (XMD13-2 + Alpelisib; first compound 0.05 µM) | relative viability (XMD13-2 + Alpelisib; first compound 0.1581 µM) | relative viability (XMD13-2 + Alpelisib; first compound 0.5 µM) | relative viability (XMD13-2 + Alpelisib; first compound 1.581 µM) | relative viability (XMD13-2 + Alpelisib; first compound 5 µM) | relative viability (ALW-II-49-7 + Foretinib; first compound 0.08 µM) | relative viability (ALW-II-49-7 + Foretinib; first compound 0.253 µM) | relative viability (ALW-II-49-7 + Foretinib; first compound 0.8 µM) | relative viability (ALW-II-49-7 + Foretinib; first compound 2.53 µM) | relative viability (ALW-II-49-7 + Foretinib; first compound 8 µM) | relative viability (ALW-II-49-7 + Alpelisib; first compound 0.08 µM) | relative viability (ALW-II-49-7 + Alpelisib; first compound 0.253 µM) | relative viability (ALW-II-49-7 + Alpelisib; first compound 0.8 µM) | relative viability (ALW-II-49-7 + Alpelisib; first compound 2.53 µM) | relative viability (ALW-II-49-7 + Alpelisib; first compound 8 µM)
1 | NCI-H1666 | 0.725 | 0.691 | 0.73 | 0.656 | 0.521 | 1.02 | 1.07 | 0.936 | 0.874 | 0.879 | 0.954 | 0.887 | 0.964 | 1.05 | 1.05 | 1.05 | 1.07 | 0.853 | 0.951 | 0.868
2 | NCI-H1734 | 0.508 | 0.48 | 0.533 | 0.412 | 0.321 | 0.887 | 0.577 | 0.662 | 0.576 | 0.565 | 0.958 | 0.91 | 0.871 | 0.741 | 0.799 | 0.645 | 0.774 | 0.657 | 0.694 | 0.577
3 | NCI-H1755 | 0.682 | 0.641 | 0.602 | 0.509 | 0.323 | 0.928 | 0.915 | 0.928 | 0.92 | 0.965 | 0.875 | 1.06 | 0.807 | 0.931 | 0.825 | 0.931 | 0.965 | 0.909 | 0.807 | 0.818
4 | NCI-H1793 | 0.504 | 0.427 | 0.295 | 0.328 | 0.323 | 0.797 | 0.835 | 0.686 | 0.732 | 0.897 | 0.667 | 0.642 | 0.728 | 0.701 | 0.855 | 0.717 | 0.673 | 0.752 | 0.716 | 0.884
5 | NCI-H1915 | 0.291 | 0.249 | 0.231 | 0.224 | 0.144 | 1.1 | 1.08 | 1.04 | 1.05 | 1.06 | 1.17 | 1.07 | 1.06 | 0.864 | 0.816 | 1.1 | 1.13 | 1.08 | 0.978 | 0.731
6 | NCI-H1944 | 0.439 | 0.39 | 0.36 | 0.272 | 0.189 | 1.02 | 0.85 | 0.889 | 0.939 | 0.778 | 0.997 | 0.801 | 0.964 | 0.846 | 0.954 | 0.817 | 0.836 | 0.807 | 0.916 | 0.941
7 | NCI-H1975 | 0.377 | 0.384 | 0.368 | 0.266 | 0.224 | 0.768 | 0.642 | 0.656 | 0.607 | 0.648 | 0.918 | 1.05 | 1 | 0.909 | 0.891 | 0.534 | 0.62 | 0.641 | 0.662 | 0.485
8 | NCI-H1993 | 0.503 | 0.477 | 0.67 | 0.456 | 0.407 | 0.666 | 0.663 | 0.694 | 0.763 | 0.642 | 0.7 | 0.852 | 0.797 | 0.756 | 0.892 | 0.691 | 0.644 | 0.671 | 0.72 | 0.688
